Values quoted from earlier work as cited in patent EP1656939A1 (Pooger Properties Limited, priority 2004, dated 2006).

What was measured:
[1] = tested on: chemically induced mammary tumors
[2] = tested on: Ehrlich-carcinoma- and sarcoma-180-bearing mice; details: photoperiod alternated between LD 14:10 and DL 10:14 every 3 days

COc1ccc2[nH]cc(CCNC(C)=O)c2c1 [melatonin, N-acetyl-5-methoxytryptamine]
half-life of endogenous melatonin in the serum (endogenous melatonin, serum): 30 to 50 min
cleared in a single passage through the liver (single passage through the liver): Approximately 90%
promotion of chemically induced mammary tumors ([1]; in vivo): inhibits
antitumor activity ([1]; rodents): significant antitumor activity
reduction of survival and acceleration of tumor growth [2]: reversed
